Reference: US6054437A, “Method for inducing death of neoplastic cells using piperazine derivatives” (Hitachi Chemical Research Center, Inc., priority 1997, dated 2000)
Structures can show the parent of a compound that is named as a salt.

Experiments:
HS-578T (breast) = test: Cancer cell survival assay, HS-578T; assay type: cell-based, human; conditions: seven days, alone
Protocol: Cell survival was assayed in cultured tumor cells. From 500-1000 cells per well were plated in 24-welled culture dishes and exposed to drug for seven days. After drug exposure, a computerized cell imaging technique was utilized to ascertain the number of viable cells remaining in each culture. From the data, survival curves were plotted and a ED50 (drug concentration that permits 50% cell survival) were calculated.
The cancer cell survival assay is an important additional in vitro assay to assess the anti-neoplastic activity of compounds as the cells are given a prolonged exposure (seven days) to the drug. FIGS. 9-16 show the effect of increasing the dose of NCO-700 on the survival of a number of cancer cell lines. […] In the figures, the vertical axis is the object area, which is the number of surviving cancer cells calculated by a computer.

KB-V-1 (resistant cells) = test: Drug accumulation assay ([3H]-vinblastine), resistant cells; assay type: cell-based, human; conditions: KB-V-1, 20 μM NCO-700 + vinblastine
Protocol: 1. Drug Accumulation Assays
where the effect of NCO-700 on the uptake of radioactive (^3 H)-vinblastine, an anticancer drug, is measured in cultured cancer cells, that are both drug-resistant and drug-sensitive (Reference 3).
In the first two in vitro assays, the drug accumulation assay and the cell survival assay, a human pharyngeal carcinoma cell line (KB-V-1) which is highly resistant to anticancer drugs was used. This cell line was developed by Drs. Ira Pastan and Michael Gottesman of the National Cancer Institute, by step-wise selection in colchicine of drug-resistant cells. The control cancer cell line (KB-3), from which the resistant cell lines were derived, is sensitive to anticancer drugs.
Measurement of [^3 H]-vinblastine accumulation was performed by the methods developed in the laboratory of Drs. […] In this method, KB-V-1 and KB-3 cells were plated in 10% fetal bovine serum at a density of 3×10^5 cells per well in 24-well Costar plates. The next day, the growth medium was replaced with Dulbecco's modified Eagle's medium with or without (control cells) 20 μM NCO-700. After ten minutes, the medium was removed and replaced with assay medium (0.5 ml) containing 0.1 μCi, (13 pmol) [^3 H]-vinblastine in the presence or absence of 20 μM NCO-700. After an additional 30 min, the medium was removed, the plates were washed three times in ice-cold phosphate-buffered saline, the cells were detached with trypsin, and radioactivity determined by scintillation counting.

KB-CH 8-5 = test: In vivo model of tumorigenicity, nude mice carrying resistant human tumor
Protocol: 3. In Vivo Model of Tumorigenicity
where the effect of NCO-700 in the ability of adriamycin to reduce tumor mass in drug-resistant neoplasms was measured.
For the in vivo model of tumorigenicity, cell lines developed by Pastan and Gottesman which can grow as solid tumors in nude mice were utilized. This cell line was designated KB-CH 8-5, and was a nonreverting resistant cell line. All of these cancer cell lines were generously provided by Dr. Gottesman.
In the next series of experiments, an in vivo model of tumorigenicity was utilized to examine the effect of NCO-700 on tumor mass. These experiments were performed with the cell line KB-CH-8/5, which is a cell line developed by Drs. Gottesman and Pastan, specifically for use in animals as the cells from solid tumors in vivo. Nude male mice, 5-6 weeks old and weighing between 25-30 g, were injected subcutaneously with 2-5×10^6 KB-CH-8/5 cells and treated for 14 days with 0.6 mg/kg adriamycin and with or without NCO-700 in doses ranging from 0-80 mg/kg NCO-700 per day. The data shown in FIG. 37 were obtained by weighing the well-encapsulated, excised tumor and recording the body weight of the mice.

[1] = system: breast cancer tumor cells from patients; test: Human tumor biopsy assay (tumor cloning system), breast tumors; assay type: cell-based; conditions: 20 μM NCO-700, two breast tumors
Protocol: 4. Human Tumor Biopsy Assays
where the effect of NCO-700 to enhance killing, by either vinblastine or adriamycin, of cancer cells cultured directly from patient's tumors (Von Hoff et al., Cancer Res. 43:1926-1931, 1983).
For the tumor biopsy assay, primary cell cultures were propagated directly from tumor specimens removed from patients. The cells were grown in suspension culture, treated with adriamycin or vinblastine plus NCO-700, and plated onto soft agar and incubated for two weeks before cell survival was determined.
In a final series of experiments, the effect of NCO-700 on survival of cells cultured directly from biopsied patient tumors was performed. This technique, referred to as a human tumor cloning system, was developed by Von Hoff and associates (Von Hoff et al., Cancer Res. 43:1926-1931, 1983) and was used clinically to predict the course of chemotherapy for these patients. In this method, tumor biopsies were separated into cell suspensions and treated for 1 hour with either 0.4 mg/ml vinblastine (VLB) or 0.5 mg/ml adriamycin (ADR) plus or minus 20 μM NCO-700. The cell suspensions were washed after one hour of incubation and plated with soft agar. After 14 days of incubation at 37°, the percent of colonies surviving was scored. […] In particular, the survival of tumor cells decreased to approximately 1/2 to 1/3 after exposure to NCO-700 and adriamycin. […]

CCOC(=O)[C@@H]1O[C@H]1C(=O)N[C@@H](CC(C)C)C(=O)N1CCN(Cc2ccc(OC)c(OC)c2OC)CC1 [NCO-700, Bis[ethyl (2R,3R)-3-[(S)-3-methyl-1-[4-(2,3,4-trimethoxyphenylmethyl)piperazin-1-ylcarbonyl]butylcarbamoyl]oxirane-2-carboxylate] Sulfate]
anti-neoplastic activity (cell survival) (HS-578T (breast)): significant anti-neoplastic activity
vinblastine accumulation (KB-V-1 (resistant cells)): 1.56 ± 0.03 pmole vinblastine/mg protein
effect on tumor, alone (KB-CH 8-5; NCO-700 on its own): not significantly effective on its own
decline of tumor mass (KB-CH 8-5; NCO-700 with adriamycin): 60%
loss of body weight (KB-CH 8-5; nude mice carrying resistant human tumor): without any corresponding loss of body weight
potentiation of the effect of adriamycin on tumor (KB-CH 8-5; with 0.6 mg/kg adriamycin, 14 days, NCO-700 0-80 mg/kg per day): significantly potentiated the effect of adriamycin, especially at an amount of 40 mg/kg or more
sensitization of tumor cells to adriamycin and vinblastine [1]: significantly sensitized these tumor cells to the actions of adriamycin (ADR) and vinblastine (VLB)
